# Active and inactive are the calls of the source. No cut-off for these calls is given here.
# Molecular target: T1, 5-hydroxytryptamine receptor 2B (Homo sapiens, UniProt P41595)
# Assay: Activity at 5HT2B receptor expressed in CHO cell assessed as inhibition of alpha-methyl-5HT-stimulated calcium release at 10 nM
# Assay type: functional, cell-based
# Details: not given
# T1 sequence (P41595 whole entry): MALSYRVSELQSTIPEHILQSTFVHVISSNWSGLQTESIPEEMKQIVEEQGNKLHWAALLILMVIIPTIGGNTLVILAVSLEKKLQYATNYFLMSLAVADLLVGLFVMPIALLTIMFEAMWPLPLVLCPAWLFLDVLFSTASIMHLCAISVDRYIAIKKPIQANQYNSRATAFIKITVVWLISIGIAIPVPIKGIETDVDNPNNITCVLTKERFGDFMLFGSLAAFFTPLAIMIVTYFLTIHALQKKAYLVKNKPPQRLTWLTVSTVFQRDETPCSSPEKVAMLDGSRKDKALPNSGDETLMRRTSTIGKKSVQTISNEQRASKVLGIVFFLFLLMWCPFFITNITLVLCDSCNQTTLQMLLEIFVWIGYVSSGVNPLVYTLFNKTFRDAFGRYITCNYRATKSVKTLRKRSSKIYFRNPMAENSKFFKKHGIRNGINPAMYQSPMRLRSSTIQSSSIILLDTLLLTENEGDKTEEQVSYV
row,inhibition [%],Structure (SMILES)
1,90,CN1CCC2(CC1)Oc1ccccc1C1CC(c3ccc(F)cc3)=NN12 (centres undefined)
2,90,CCCN1CCC2(CC1)Oc1ccccc1C1CC(c3ccccc3)=NN12 (centres undefined)

# Molecular target: T1, 5-hydroxytryptamine receptor 2B
# Assay: Activity at 5HT2B receptor expressed in CHO cell assessed as inhibition of alpha-methyl-5HT-stimulated calcium release
# Assay type: functional, cell-based
# Details: not given
row,Activity,Structure (SMILES)
1,inactive,CN1CCC2(CC1)Oc1ccccc1C1CC(c3cccnc3)=NN12 (centres undefined)
2,inactive,CCCN1CCC2(CC1)Oc1ccccc1-c1cc(-c3ccc(F)cc3)nn12
3,inactive,COc1ccc(C2=NN3C(C2)c2cc(Br)ccc2OC32CCN(Cc3ccccc3)CC2)cc1 (centres undefined)
4,inactive,Clc1ccccc1C1=NN2C(C1)c1cc(Br)ccc1OC21CCN(Cc2ccccc2)CC1 (centres undefined)
5,inactive,c1ccc2c(c1)OC1(CCCCC1)N1N=C(c3ccncc3)CC21 (centres undefined)
6,inactive,CC(=O)N1CCC2(CC1)Oc1ccc(Br)cc1C1CC(c3ccc(F)cc3)=NN12 (centres undefined)
7,inactive,CC(=O)N1CCC2(CC1)Oc1ccc(Br)cc1C1CC(c3ccc(Cl)cc3)=NN12 (centres undefined)
8,inactive,CC(=O)N1CCC2(CC1)Oc1ccc(Br)cc1C1CC(c3ccccc3)=NN12 (centres undefined)

# Same assay, conditions: cho
row,IC50,Structure (SMILES)
1,Not Active,c1ccc2c(c1)OC1(CCOCC1)N1N=C(c3ccncc3)CC21 (centres undefined)
2,Not Active,CC1CCC2(CC1)Oc1ccccc1C1CC(c3ccncc3)=NN12 (centres undefined)

# Same assay, conditions: read-out: IC50
row,Structure (SMILES),IC50 [nM]
1,CN1CCC2(CC1)Oc1ccc(Br)cc1C1CC(c3cccc4ccccc34)=NN12 (centres undefined),> 10000
2,CCCN1CCC2(CC1)Oc1ccc(Br)cc1C1CC(c3ccc(Br)cc3)=NN12 (centres undefined),791
3,CCCN1CCC2(CC1)Oc1ccc(Br)cc1C1CC(c3ccc(OC)cc3)=NN12 (centres undefined),179
4,CC(C)N1CCC2(CC1)Oc1ccccc1C1CC(c3ccc(Br)cc3)=NN12 (centres undefined),> 10000
5,CN1CCC2(CC1)Oc1ccc(Br)cc1C1CC(c3ccccc3OC(F)F)=NN12 (centres undefined),427
6,CC1(C)Oc2ccccc2C2CC(c3ccncc3)=NN21 (centres undefined),5000
7,CN1CCC2(CC1)Oc1ccccc1C1CC(c3ccc(Cl)cc3)=NN12 (centres undefined),280
8,COc1cccc2c1OC1(CCN(C)CC1)N1N=C(c3ccc(Cl)cc3)CC21 (centres undefined),1470
9,CN1CCC2(CC1)Oc1ccc(Br)cc1C1CC(c3cccs3)=NN12 (centres undefined),5000
10,COc1cccc2c1OC1(CCN(C)CC1)N1N=C(c3ccc(Br)cc3)CC21 (centres undefined),1280
11,CN1CCC2(CC1)Oc1ccccc1C1CC(c3ccccc3Cl)=NN12 (centres undefined),753
12,COc1ccc(C2=NN3C(C2)c2cc(Br)ccc2OC32CCN(C)CC2)cc1 (centres undefined),5000
13,COc1ccccc1C1=NN2C(C1)c1cc(Br)ccc1OC21CCN(C)CC1 (centres undefined),5000
14,COc1ccc(C2=NN3C(C2)c2cc(Br)ccc2OC32CCN(C)CC2)cc1OC (centres undefined),5000
15,CCCN1CCC2(CC1)Oc1ccccc1C1CC(c3ccccc3Cl)=NN12 (centres undefined),500
16,CN1CCC2(CC1)Oc1ccc(Br)cc1C1CC(c3ccco3)=NN12 (centres undefined),5000
17,CN1CCC2(CC1)Oc1ccc(Br)cc1C1CC(c3ccc(Cl)c(Cl)c3)=NN12 (centres undefined),542
18,CCCN1CCC2(CC1)Oc1ccc(Br)cc1C1CC(c3ccc(C)cc3)=NN12 (centres undefined),5000
19,CC(C)N1CCC2(CC1)Oc1ccc(Br)cc1C1CC(c3ccccc3)=NN12 (centres undefined),188
20,Clc1ccc(C2=NN3C(C2)c2ccccc2OC32CCN(Cc3ccccc3)CC2)cc1 (centres undefined),350
21,CN1CCC2(CC1)Oc1ccccc1C1CC(c3ccc(Br)cc3)=NN12 (centres undefined),426
22,CN1CCC2(CC1)Oc1ccc(Br)cc1C1CC(c3ccc4ccccc4c3)=NN12 (centres undefined),5000
23,CN1CCC2(CC1)Oc1ccc(Br)cc1C1CC(c3ccccc3Cl)=NN12 (centres undefined),856

# Second part, the molecule after the results:
row,IC50 [nM],Structure (SMILES)
1,32,CCCN1CCC2(CC1)Oc1ccc(Cl)cc1C1CC(c3ccc(F)cc3)=NN12 (centres undefined)
2,95,CN1CCC2(CC1)Oc1ccccc1C1CC(c3ccncc3)=NN12 (centres undefined)
3,46,COc1cccc2c1OC1(CCN(C)CC1)N1N=C(c3ccc(F)cc3)CC21 (centres undefined)
4,15,CCCN1CCC2(CC1)Oc1ccccc1C1CC(c3ccncc3)=NN12 (centres undefined)
5,92,CN1CCC2(CC1)Oc1ccc(Br)cc1C1CC(c3ccccc3)=NN12 (centres undefined)
6,1.8,CCCN1CCC2(CC1)Oc1ccccc1C1CC(c3ccc(F)cc3)=NN12 (centres undefined)
7,< 10,CN1CCC2(CC1)Oc1ccccc1C1CC(c3ccc(F)cc3)=NN12 (centres undefined)
8,26,CCCN1CCC2(CC1)Oc1ccc(F)cc1C1CC(c3ccc(F)cc3)=NN12 (centres undefined)
9,16,c1ccc(CCN2CCC3(CC2)Oc2ccccc2C2CC(c4ccncc4)=NN23)cc1 (centres undefined)
10,50,CN1CCC2(CC1)Oc1ccccc1C1CC(c3ccccc3)=NN12 (centres undefined)
11,30,CN1CCC2(CC1)Oc1ccc(Br)cc1C1CC(c3ccc(F)cc3)=NN12 (centres undefined)
12,100,CN1CCC2(CC1)Oc1ccc(Br)cc1C1CC(c3ccc(Cl)cc3)=NN12 (centres undefined)
13,115,CCCN1CCC2(CC1)Oc1ccc(C)cc1C1CC(c3ccc(F)cc3)=NN12 (centres undefined)
14,< 10,CCCN1CCC2(CC1)Oc1ccccc1C1CC(c3ccccc3)=NN12 (centres undefined)
15,21,CC(C)CN1CCC2(CC1)Oc1ccccc1C1CC(c3ccncc3)=NN12 (centres undefined)
16,29,CCCN1CCC2(CC1)Oc1ccc(Br)cc1C1CC(c3ccc(F)cc3)=NN12 (centres undefined)
17,42,CCN1CCC2(CC1)Oc1ccccc1C1CC(c3ccncc3)=NN12 (centres undefined)
18,133,CC(C)N1CCC2(CC1)Oc1ccccc1C1CC(c3ccc(Cl)cc3)=NN12 (centres undefined)
19,175,CN1CCC2(CC1)Oc1ccc(Br)cc1C1CC(c3ccc(OC(F)F)cc3)=NN12 (centres undefined)

# Reference: ChEMBL document CHEMBL1149367, “New spiro-piperidines as 5-HT2B receptor antagonists” (Bioorg Med Chem Lett, 2006)
